For one test, the target named is T1, α1‐antitrypsin (Homo sapiens, UniProt P01009, E366K).
T1 construct: random insertion of the human Z α1‐antitrypsin gene; from tissue; host or cells: hemizygous Z α1-antitrypsin transgenic mice (liver, plasma)
The test is described as follows: Intrahepatic α1‐antitrypsin by ELISA in Z α1‐antitrypsin transgenic mice. The class given is in vivo, mouse. On the procedure:
Since GSK716 blocks polymer formation in cells, we explored the effect of dosing GSK716 on liver polymer levels. […] GSK716 was dosed at 100 mg/kg three times a day for 20 days. […] Liver polymer levels were investigated by staining with 2C1 anti‐polymer monoclonal antibody and were scored blind by a pathologist or by quantification using an algorithm to measure all areas of positive staining (Fig EV1). There was no difference observed in total liver polymer load when assessed by manual or quantitative scoring (Fig 6B and C). There was no significant fibrosis in any of the liver sections. Intrahepatic α1‐antitrypsin was also assessed by ELISA. The vast majority (95–100%) of α1‐antitrypsin within the liver was polymer with the monomer typically being below the level of detection. Treatment with GSK716 increased the monomer measured in liver homogenate by approx. fourfold in keeping with the changes seen in blood.

The next test addresses T2, M α1‐antitrypsin (Homo sapiens, UniProt P01009).
T2 construct: purified from the plasma of M (wild‐type) and Z α1‐antitrypsin homozygotes; from tissue; host or cells: human plasma of M (wild-type) homozygotes
As to the kind of experiment: Stoichiometry of inhibition against chymotrypsin, M α1‐antitrypsin. It counts as biochemical. As to conditions: M α1‐antitrypsin pre‐incubated with GSK716 (50µM), read-out: loss of protease inhibitory activity. How it is done: Mutations that interfere with the opening of β‐sheet A or that perturb its interaction with the N‐terminal portion of the reactive centre loop alter the ability of serpins to inhibit target proteases (Hood et al, 1994; Irving et al, 2014). The stoichiometry of inhibition (SI) was determined for M α1‐antitrypsin and Z α1‐antitrypsin in discontinuous experiments against a model target protease, chymotrypsin. The pre‐incubation of both variants with GSK716 led to a > 98% loss of protease inhibitory activity (Fig 5A).
Figure 5 The effect of GSK716 on serpin inhibitory activity • α1‐Antitrypsin was incubated at varying molar ratios with the model protease bovine α‐chymotrypsin, and the residual protease activity determined. […] The position of covalent α1‐antitrypsin‐chymotrypsin complex (cpx), native (nat) and cleaved (clv) is shown. • The inhibitory activity of α1‐antichymotrypsin against chymotrypsin (ach + chym), neuroserpin against trypsin (neus + tryp), and antithrombin against thrombin (atiii + thrombin) was determined in the presence and absence of GSK716. […]
The native state stability of α1‐antitrypsin on addition of compounds was investigated by thermal denaturation in the presence of a 5X concentration of SYPRO Orange dye solution (Life Technologies) (Nettleship et al, 2008). Resistance to heat‐induced polymerisation was determined using an end‐point constant‐temperature assay. […]

For the next test, the system named is NULL CHO-K1. The test is described as follows: Off‐target panel: NULL CHO-K1 Agonist (DRX). As to conditions: Cricetulus griseus, read-out: Mean (PXC50). The class given is cell-based. On the procedure: GSK716 selectivity and PK properties were profiled in order to investigate the suitability of GSK716 for progression into in vivo studies and the potential for taking it forward as a clinical candidate for testing in humans. Since GSK716 results in loss of inhibitory activity of α1‐antitrypsin, the effect of the compound was assessed on other closely related serpins. […] Furthermore, there were no off‐target effects in a panel of assays considered predictive of known safety liabilities that precluded further development of GSK716 (Table EV1).

Structures are written as SMILES. Bounds are passed on as bounds.

T2 sequence (P01009 25-418): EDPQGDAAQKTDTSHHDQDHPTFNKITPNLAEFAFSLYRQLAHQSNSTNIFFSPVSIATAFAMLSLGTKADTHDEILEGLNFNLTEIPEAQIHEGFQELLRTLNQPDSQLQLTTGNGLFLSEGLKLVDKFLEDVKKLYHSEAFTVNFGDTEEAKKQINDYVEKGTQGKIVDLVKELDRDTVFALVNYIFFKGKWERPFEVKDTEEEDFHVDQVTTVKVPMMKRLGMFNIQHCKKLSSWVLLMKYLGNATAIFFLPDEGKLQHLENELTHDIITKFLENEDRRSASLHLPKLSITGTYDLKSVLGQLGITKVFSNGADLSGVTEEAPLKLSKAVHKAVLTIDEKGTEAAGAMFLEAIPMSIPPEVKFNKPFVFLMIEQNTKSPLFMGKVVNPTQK
T1 sequence (P01009 25-418 E366K): as the sequence (P01009 25-418) above, with E342K counted along it

Take `CCC[C@@H](NC(=O)c1cccc2c1CC(=O)N2)[C@@H](O)c1cccc(F)c1C` [GSK716]: the “increase of monomer measured in liver homogenate” value at α1‐antitrypsin is “approx. fourfold”. Further, the inhibition at 50 µM at M α1‐antitrypsin is greater than 98%. The EC50 with NULL CHO-K1 was greater than 100 µM.

The record behind these values is publication PMC7933930, “Development of a small molecule that corrects misfolding and increases secretion of Z α1‐antitrypsin” (EMBO Molecular Medicine, 2021).
